# Laboratory results: patent US20090022803A1, “Oral Formulations For Delivery of Catecholic Butanes Including Ndga Compounds” (priority 2005, published 2009)
# Assay: Stability of M4N formulations at room temperature (time to crystallized precipitation)
# Assay type: physicochemical
# Procedure: A 10 mL solution of M4N at a concentration of about 10 mg/mL in 40% BP-β-CD was made as follows. About 10 mL of the 40% HP-β-CD solution were added to a glass beaker containing a stir bar. The beaker was placed on a magnetic plate and the stir bar was set to stir at medium speed. About […] of M4N were slowly added to the 40% HP-β-CD in the center of the beaker with the aid of a spatula. The M4N/40% HP-β-CD mixture was stirred for 2 hr or until all M4N was uniformly suspended without any clumps being present. The M4N/40% HP-β-CD mixture was optionally heated at 80° C. for about 30 min. (or longer if a larger volume of solution was desired, for example, 1 hr at 80° C. for 100 mL of the M4N/HP-β-CD mixture), or longer as needed to ensure complete dissolution of M4N. […] The final M4N/40% HP-β-CD solution was stored at room temperature and was kept protected from light. This process may be scaled up or down to obtain the requisite volume or concentration of M4N. Formulations containing M4N in other cyclodextrin solutions may be similarly made, such as, for example, by substituting HP-β-CD in the process described above with other cyclodextrins.
# A 100 mL solution of M4N at a concentration of about 25 mg/mL in PEG 300 was made as follows. About 100 mL of PEG 300 were added to a glass beaker containing a stir bar. The beaker was placed on a magnetic plate and the stir bar was set to stir at medium speed. About 2.5 g of M4N were slowly added to the PEG 300 in the center of the beaker with the aid of a spatula to prevent M4N from sticking to the beaker wall. The M4N/PEG 300 mixture was stirred for 24 hr or until all M4N had dissolved or was uniformly suspended without any clumps being present. The M4N/PEG 300 mixture was optionally heated at about 60° C. for about 30 min. (or longer if a larger volume of solution was desired, for example, 1 hr at 60° C. for 500 mL of the M4N/PEG 300 mixture), or longer as needed to ensure complete dissolution of M4N. […] If crystals formed, the M4N/PEG 300 solution could be heated again at 60° C. for about 1 hr, with stirring, on a hot magnetic plate until all M4N was dissolved back in solution. The final M4N/PEG 300 solution was stored at room temperature and was kept protected from light. This process may be scaled up or down to obtain the requisite volume or concentration of M4N. Formulations containing M4N in other PEGs may be similarly made, such as, for example, by substituting PEG 300 in the process described above with PEG 400 or PEG 400 monolaurate.
# Formulations containing M4N in other water-insoluble lipids combined with non-ionic, ionic or amphipathic surfactants or water-soluble organic solvents may be similarly made, such as, for example, by substituting sesame oil in the process described above with corn oil, olive oil, soybean oil, peppermint oil, or mineral oil and substituting Tween® 20 with Tween® 80, TPGS, lecithin, PEG 300, PEG 400, PEG 400 monolaurate, glycerol, PVP, PG, or other solubilizing agents, and combinations thereof. Stability in reference to the clear liquid solutions herein refers to the time it takes to form crystallized precipitation in solution. A stable solution is one that is clear and free of particulates for an extended period of time.
smiles,measurement,setting,value
"COc1ccc(C[C@@H](C)[C@@H](C)Cc2ccc(OC)c(OC)c2)cc1OC [Formulation M4N, meso-1,4-bis(3,4-dimethoxyphenyl)-2,3-dimethylbutane]",Stability at Room Temperature,"0.3% (v/v) Piperin, 49.8% (v/v) PEG 400, 49.8% (v/v) Tween ® 20, M4N 60 mg/mL, suspension",>9 days
same,Stability at Room Temperature,"0.4% (v/v) Cinnamadehyde, 49.8%(v/v) PEG 400, 49.8% (v/v) Tween ® 20, M4N 60 mg/mL",>4 days
same,Stability at Room Temperature,"0.4% (v/v) Cinnamaldehyde, 4.6% (v/v) Peppermint Oil, 47.5% (v/v) PEG 400, 47.5% (v/v) Tween ® 20, M4N 60 mg/mL",>2 days
same,Stability at Room Temperature,"0.4% (v/v) Eugenol, 49.8% (v/v) Tween ® 20, 49.8% (v/v) PEG 400, M4N 60 mg/mL",>2 days
same,Stability at Room Temperature,"3% (w/v)Glycerol Monostearate, 48.5% (v/v) PEG 400, 48.5% (v/v) Tween ® 20, M4N 60 mg/mL",>1 days
same,Stability at Room Temperature,"5% (v/v) Peppermint Oil, 47.5% (v/v) Tween ® 20, 47.5% (v/v) PEG 400, M4N 60 mg/mL",>2 days
same,Stability at Room Temperature,"10% TPGS (w/v), 50% PEG 400 (v/v), M4N 50 mg/ml, suspension",>7 days
same,Stability at Room Temperature,"25%(w/v) Lecithin, 37.5% (v/v) PEG 400, 37.5% (v/v) Tween ® 20, M4N 60 mg/mL",>14 days
same,Stability at Room Temperature,"47.5% (v/v) Tween ® 20, 47.5% (v/v) PEG 400, 2.5% (w/v) Beeswax 2.5% (w/v) PEG 3350, M4N 60 mg/mL",>4 days
same,Stability at Room Temperature,"47.5% Tween ® 20 (v/v), 47.5% PEG 400 (v/v), 5% Beeswax (w/v), M4N 200 mg/g, waxy solid",>3 days
same,Stability at Room Temperature,"50% Tween ® 20 (v/v), 50% PEG 400 (v/v), M4N 30 mg/ml",>3 days
same,Stability at Room Temperature,"50% Tween ® 20 (v/v), 50% PEG 400 (v/v), M4N 40 mg/ml",>3 days
same,Stability at Room Temperature,"50% Tween ® 20 (v/v), 50% PEG 400 (v/v), M4N 50 mg/ml",>3 days
same,Stability at Room Temperature,"50% Tween ® 20 (v/v), 50% PEG 400 (v/v), M4N 60 mg/ml",>3 days
same,Stability at Room Temperature,"50.3% (v/v) Tween ® 20, 44.6% (v/v) PEG 400, 2.4% (w/v) Beeswax, 2.4% (w/v) PEG 3350, 0.3% (w/v) Naringenin, M4N 60 mg/mL",>4 days
same,Stability at Room Temperature,"Glycerol Monoleate 100% (w/v), M4N 0.10 mg/ml, remains in suspension, can be mixed back together",for up to 10 days
same,Stability at Room Temperature,"Glycerol Monoleate 100% (w/v), M4N 0.25 mg/ml, remains in suspension, can be mixed back together",for up to 10 days
same,Stability at Room Temperature,"Glycerol Monoleate 100% (w/v), M4N 1.00 mg/ml, remains in suspension, can be mixed back together",for up to 10 days
same,Stability at Room Temperature,"Glycerol Monoleate 100% (w/v), M4N 5.0 mg/ml, remains in suspension, can be mixed back together",for up to 10 days
same,Stability at Room Temperature,"Glycerol Monoleate 100% (w/v), M4N 10.0 mg/ml, remains in suspension, can be mixed back together",for up to 10 days
same,Stability at Room Temperature,"Glycerol Monoleate 100% (w/v), M4N 12.0 mg/ml, remains in suspension, can be mixed back together",for up to 10 days
same,Stability at Room Temperature,"Glycerol Monoleate 100% (w/v), M4N 15.0 mg/ml, remains in suspension, can be mixed back together",for up to 10 days
same,Stability at Room Temperature,"Glycerol Monoleate 100% (w/v), M4N 17.5 mg/ml, remains in suspension, can be mixed back together",for up to 10 days
same,Stability at Room Temperature,"Glycerol Monoleate 100% (w/v), M4N 20.0 mg/ml, remains in suspension, can be mixed back together",for up to 10 days
same,Stability at Room Temperature,"Glycerol Monoleate 100% (w/v), M4N 25.0 mg/ml, remains in suspension, can be mixed back together",for up to 10 days
same,Stability at Room Temperature,"Glycerol Monoleate 100% (w/v), M4N 30.0 mg/ml, remains in suspension, can be mixed back together",for up to 10 days
same,Stability at Room Temperature,"Glycerol Monoleate 100% (w/v), M4N 40.0 mg/ml, remains in suspension, can be mixed back together",for up to 10 days
same,Stability at Room Temperature,"Glycerol Monoleate 100% (w/v), M4N 50.0 mg/ml, remains in suspension, can be mixed back together",for up to 10 days
same,Stability at Room Temperature,"Glycerol Monoleate 100% (w/v), M4N 60.0 mg/ml, remains in suspension, can be mixed back together",for up to 10 days
same,Stability at Room Temperature,"Glycerol Monoleate 100% (w/v), M4N 65.0 mg/ml, remains in suspension, can be mixed back together",for up to 10 days
same,Stability at Room Temperature,"Glycerol Monoleate 100% (w/v), M4N 70.0 mg/ml, remains in suspension, can be mixed back together",for up to 10 days
same,Stability at Room Temperature,"Glycerol Monoleate 100% (w/v), M4N 80.0 mg/ml, remains in suspension, can be mixed back together",for up to 10 days
same,Stability at Room Temperature,"Glycerol Monoleate 100% (w/v), M4N 100.0 mg/ml, remains in suspension, can be mixed back together",for up to 10 days
same,Stability at Room Temperature,"Glycerol Monoleate 100% (w/v), M4N 200.0 mg/ml, remains in suspension, can be mixed back together",for up to 10 days
same,Stability at Room Temperature,"Glycerol Monoleate 100% (w/v), M4N 300.0 mg/ml, remains in suspension, can be mixed back together",for up to 10 days
same,Stability at Room Temperature,"Labrafil ® 100%, M4N 60 mg/mL",>4 days
same,Stability at Room Temperature,"Labrasol ® 100%, M4N 50 mg/mL",>4 days
same,Stability at Room Temperature,"Labrasol ® 100%, M4N 60 mg/mL",>4 days
same,Stability at Room Temperature,"Labrasol ® 100%, M4N 70 mg/mL",>4 days
same,Stability at Room Temperature,"Labrasol ® 100%, M4N 80 mg/mL",>4 days
same,Stability at Room Temperature,M4N 1 mg/mL in 20% HP-β-CD,>7 days
same,Stability at Room Temperature,M4N 1 mg/mL in 30% HP-β-CD,>7 days
same,Stability at Room Temperature,M4N 1 mg/mL in 50% HP-β-CD,>7 days
same,Stability at Room Temperature,"M4N 1 mg/mL in 50% HP-β-CD, 1.25% PVP (w/v)",<3 days
same,Stability Time at Room Temperature,M4N 1 mg/mL in Peppermint Oil,>3 days
same,stable at room temperature,M4N 1 mg/mL in Tween® 20,more than 7 days
same,stable at room temperature,M4N 1 mg/mL in Tween® 80,more than 3 days
